Source: patent US20220249597A1, “MIF INHIBITORS AND METHODS OF USE THEREOF” (The Johns Hopkins University, priority 2016, published 2022)
{Biotin} = biotin label

How the values were obtained:
[1] = molecular target: T1, MIF (Homo sapiens, UniProt P14174); assay: MIF nuclease assay with small DNA substrates; assay type: biochemical; set-up: GST (N, cleaved yes); made in house; host or cells: Escherichia coli; key to Endo-Nuclease Activity / Exo-Nuclease Activity: Y:yes; N:no; details: for Endo-Nuclease Activity / Exo-Nuclease Activity: MIF on the listed DNA substrate; for MIF cleavage of DNA substrate: single or double stranded substrates, ds substrates MIF 1-4 μM
T1 sequence (P14174 2-115 limits assumed): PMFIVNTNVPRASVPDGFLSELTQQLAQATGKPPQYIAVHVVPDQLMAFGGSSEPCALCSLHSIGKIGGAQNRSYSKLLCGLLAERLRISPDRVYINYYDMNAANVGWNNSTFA
Text: (§1) Human endoG (NM_004435), cyclophilin A (NM_021130), mouse AIF (NM_012019), human MIF (NM_002415) cDNA and their variants were subcloned into glutathione S-transferase (GST)-tagged pGex-6P-1 vector (GE Healthcare) by EcoRI and XhoI restriction sites and verified by sequencing. The protein was expressed and purified from Escherichia coli by glutathione Sepharose. The GST tag was subsequently proteolytically removed for the nuclease assay. MIF point mutants were constructed by polymerase chain reaction (PCR) and verified by sequencing. The purity of MIF proteins that were used in the nuclease assays was further confirmed by mass spectrometry. MIF proteins purified by FPLC were also used in the nuclease assays and no obvious difference was observed between FPLC MIF and non-FPLC MIF proteins. GST protein was used as a negative control in the nuclease assay.

[2] = molecular target: T1, MIF; assay: Electrophoretic mobility shift assay (EMSA) of MIF with biotin-labeled DNA substrates; assay type: binding; set-up: GST (N, cleaved yes); made in house; host or cells: Escherichia coli; details: 5′ biotin labeled single stranded substrates, 10 mM Mg2+
Protocol: EMSA assay was performed using LightShift Chemiluminescent EMSA kit (Thermo Scientific) following the manufactures instruction. Briefly, purified MIF protein (2 μM) was incubated with biotin-labeled DNA substrates (10 nM) in the binding buffer containing 10 mM MgCl2 for 30 min on ice. Then samples were separated on 6% retardation polyacrylamide followed by electrophoretic transfer to nylon membrane.
as §1

[3] = molecular target: T1, MIF; details: Mg2+ 10 mM with EDTA 50 mM or Ca2+ 2 mM with EDTA 25 mM
Protocol: (A) In vitro MIF nuclease assay using pcDNA as substrate. […] (C) Pulse-field gel electrophoresis assay of MNNG-induced DNA damage in MIF deficient HeLa cells and wild type HeLa cells treated with or without DPQ (30 μM) or ISO-1 (100 μM).
The reaction was terminated with loading buffer containing 10 mM EDTA and incubation on ice. […] Small DNA substrates were separated on 15% or 25% TBE-urea polyacrylamide (PAGE) gel or 20% TBE PAGE gel. Then gel was stained with 0.5 μg/ml Ethidium Bromide (EtBr) followed by electrophoretic transfer to nylon membrane. Then, Biotin-labeled DNA is further detected by chemiluminescence using Chemiluminescent Nucleic Acid Detection Module (Thermo Scientific).

[4] = tested on: HeLa cells; assay: Pulse-field gel electrophoresis assay of MNNG-induced DNA damage in HeLa cells; assay type: cell-based, human; details: DPQ 30 μM; ISO-1 100 μM
Text: FIGS. 2A-2D. FIG. 2. MIF is a novel nuclease that cleaves genomic DNA.

Molecule | Endo-Nuclease Activity [1] | Exo-Nuclease Activity [1] | MIF binding to ssDNA substrate (DNA/MIF complex formation) [2] | MIF cleavage of DNA substrate [1] | Effect on MIF nuclease activity against human genomic DNA [3] | Effect on MNNG induced DNA damage / DNA cleavage [4]
m17: 5′ biotin ssDNA MIF substrate, SEQ ID NO: 93 (DNA CTCAAAATCCCAAGTAGCTGGGATTACAGG; DNA, 5' {Biotin}, backbone and methylation of C not given here) | Y | Y | – | – | – | –
m14: 5′ biotin ssDNA MIF substrate, SEQ ID NO: 90 (DNA CTCAGCCTCCCAAGTAAACGGGATTACAGG; DNA, 5' {Biotin}, backbone and methylation of C not given here) | Y | Y | – | – | – | –
m4: 5′ biotin ssDNA MIF substrate, SEQ ID NO: 81 (DNA CTCAGCCAAAAAAATAGCTGGGATTACAGG; DNA, 5' {Biotin}, backbone and methylation of C not given here) | Y | Y | – | – | – | –
m5: 5′ biotin ssDNA MIF substrate, SEQ ID NO: 82 (DNA CTCAGCCTCCCAAAAAAAAGGGATTACAGG; DNA, 5' {Biotin}, backbone and methylation of C not given here) | Y | Y | – | – | – | –
BS2: 5′ biotin ssDNA MIF substrate, SEQ ID NO: 96 (DNA TGGGATTACAGGCGTGAGCCACCACGCCC; DNA, 5' {Biotin}, backbone and methylation of C not given here) | Y | Y | – | – | – | –
m11: 5′ biotin ssDNA MIF substrate, SEQ ID NO: 88 (DNA CTCAGCCTCCCAAGTAAAAGGGATTACAGG; DNA, 5' {Biotin}, backbone and methylation of C not given here) | Y | Y | – | – | – | –
m6: 5′ biotin ssDNA MIF substrate, SEQ ID NO: 83 (DNA CTCAAAAAAACAAGTAGCTGGGATTACAGG; DNA, 5' {Biotin}, backbone and methylation of C not given here) | Y | Y | – | – | – | –
m8: 5′ biotin ssDNA MIF substrate, SEQ ID NO: 85 (DNA CTCAAAATCCCAAAAAAAAGGGATTACAGG; DNA, 5' {Biotin}, backbone and methylation of C not given here) | Y | Y | – | – | – | –
m9: 5′ biotin ssDNA MIF substrate, SEQ ID NO: 86 (DNA CAAGTAGCTGCTCAGCCTCCGGATTACAGG; DNA, 5' {Biotin}, backbone and methylation of C not given here) | Y | Y | – | – | – | –
LF: 5′ biotin ssDNA MIF substrate, SEQ ID NO: 7 (DNA AAAAAAACTCAGCCTCCCAAGTAGCTGGGA; DNA, 5' {Biotin}, backbone and methylation of C not given here) | N | N | no obvious effect on the DNA/MIF complex formation | – | – | –
m16: 5′ biotin ssDNA MIF substrate, SEQ ID NO: 92 (DNA CTCAGCCTCCCTTGTAGCTGGGATTACAGG; DNA, 5' {Biotin}, backbone and methylation of C not given here) | Y | Y | – | – | – | –
PA^30: 5′ biotin-poly A, SEQ ID NO: 9 | N | Y | fails to bind | cleave | – | –
m15: 5′ biotin ssDNA MIF substrate, SEQ ID NO: 91 (DNA CTCAGCCTCCCAAGTAGCAGGGATTACAGG; DNA, 5' {Biotin}, backbone and methylation of C not given here) | Y | Y | – | – | – | –
m7: 5′ biotin ssDNA MIF substrate, SEQ ID NO: 84 (DNA AAAAGCCTCCCAAGTAGCTGGGATTACAGG; DNA, 5' {Biotin}, backbone and methylation of C not given here) | Y | Y | – | – | – | –
L3: 5′ biotin non-related sequence with stem loop like structure, SEQ ID NO: 13 (DNA ACCTAAATGCTAGAGCTCGCTGATCAGCCT; DNA, 5' {Biotin}, backbone and methylation of C not given here) | Y | Y | weakly binds | cleaved by MIF, but with less efficiency | – | –
O=C(O)CN(CCN(CC(=O)O)CC(=O)O)CC(=O)O [EDTA] | – | – | – | – | blocks MIF's nuclease activity | –
m12: 5′ biotin ssDNA MIF substrate, SEQ ID NO: 89 (DNA CTCAGCCTCCCAAGTAAATGGGATTACAGG; DNA, 5' {Biotin}, backbone and methylation of C not given here) | Y | Y | – | – | – | –
m20: 5′ biotin ssDNA MIF substrate, SEQ ID NO: 95 (DNA AAAAATCTCAGCCTCCCAAGTAGCTGGGAT; DNA, 5' {Biotin}, backbone and methylation of C not given here) | Y | Y | – | – | – | –
SL: 5′ biotin ssDNA MIF substrate, SEQ ID NO: 6 (DNA CCTGTAATCCCAAGTAGCTGGGATTACAGG; DNA, 5' {Biotin}, backbone and methylation of C not given here) | N | N | – | – | – | –
3F1: 5′ biotin ssDNA MIF substrate, SEQ ID NO: 12 (DNA AAAAAAAAAACAAGTAGCTGGGATTACAGG; DNA, 5' {Biotin}, backbone and methylation of C not given here) | Y | Y | clearly binds | – | – | –
m18: 5′ biotin ssDNA MIF substrate, SEQ ID NO: 94 (DNA CTCAATTTCCCAAGTAGCTGGGATTACAGG; DNA, 5' {Biotin}, backbone and methylation of C not given here) | Y | Y | – | – | – | –
m2: 5′ biotin ssDNA MIF substrate, SEQ ID NO: 79 (DNA CTCAGCCTCCAAAAAAAAAAGGATTACAGG; DNA, 5' {Biotin}, backbone and methylation of C not given here) | Y | Y | – | – | – | –
RF: 5′ biotin ssDNA MIF substrate, SEQ ID NO: 8 (DNA TCCCAAGTAGCTGGGATTACAGGAAAAAAA; DNA, 5' {Biotin}, backbone and methylation of C not given here) | Y | Y | reduces the DNA-MIF binding | – | – | –
m10: 5′ biotin ssDNA MIF substrate, SEQ ID NO: 87 (DNA CTCAGCCTCCGGATTACAGGCAAGTAGCTG; DNA, 5' {Biotin}, backbone and methylation of C not given here) | Y | Y | – | – | – | –
m3: 5′ biotin ssDNA MIF substrate, SEQ ID NO: 80 (DNA CTCAGCCTCCCAAGTAGCTGAAAAAAAAAA; DNA, 5' {Biotin}, backbone and methylation of C not given here) | Y | Y | – | – | – | –
COC(=O)CC1CC(c2ccc(O)cc2)=NO1 (stereo not drawn) [ISO-1] | – | – | – | – | – | fails to prevent MNNG induced DNA damage
